# Assay results reported in ChEMBL document CHEMBL5214960 (J Med Chem, 2022).
# Substitutions are numbered along the chain they refer to.
# Experiments:
# [1] = target: Tyrosine-protein phosphatase non-receptor type 13 (Homo sapiens, UniProt Q12923); test: Inhibition of FAP-1(unknown origin)
# [2] = target: Tyrosine-protein phosphatase non-receptor type 3 (Homo sapiens, UniProt P26045); test: Inhibition of PTPH1 (unknown origin)
# [3] = Inhibition of PTP-Meg2 (unknown origin); design: species or system Homo sapiens
# [4] = target: Tyrosine-protein phosphatase non-receptor type 7 (Homo sapiens, UniProt P35236); test: Inhibition of HePTP (unknown origin)
# [5] = target: Tyrosine-protein phosphatase non-receptor type 22 (Homo sapiens, UniProt Q9Y2R2); test: Inhibition of LYP (unknown origin)
# [6] = target: Tyrosine-protein phosphatase non-receptor type 6 (Homo sapiens, UniProt P29350); test: Inhibition of SHP1 (unknown origin)
# [7] = target: Tyrosine-protein phosphatase non-receptor type 2 (Homo sapiens, UniProt P17706); test: Inhibition of TC-PTP (unknown origin)
# [8] = target: Tyrosine-protein phosphatase non-receptor type 11 (Homo sapiens, UniProt Q06124); test: Inhibition of SHP2 (unknown origin)
# [9] = target: T1, Low molecular weight phosphotyrosine protein phosphatase (Mus musculus, UniProt Q9D358); test: Inhibition of N-terminal His-tagged full length mouse LMW-PTP expressed in Escherichia coli BL21(DE3) by […] analysis
# T1 sequence (Q9D358 whole entry): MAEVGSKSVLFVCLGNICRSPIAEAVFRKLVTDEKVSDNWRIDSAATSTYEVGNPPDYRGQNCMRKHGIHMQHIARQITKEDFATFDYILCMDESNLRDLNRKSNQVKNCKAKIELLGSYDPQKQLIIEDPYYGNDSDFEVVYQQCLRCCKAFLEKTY
# [10] = target: Receptor-type tyrosine-protein phosphatase C (Homo sapiens, UniProt P08575); test: Inhibition of CD45 (unknown origin)
# [11] = target: Receptor-type tyrosine-protein phosphatase F (Homo sapiens, UniProt P10586); test: Inhibition of LAR(unknown origin)
# [12] = target: Receptor-type tyrosine-protein phosphatase beta (Homo sapiens, UniProt P23467); test: Inhibition of PTPbeta (unknown origin)
# [13] = target: Receptor-type tyrosine-protein phosphatase gamma (Homo sapiens, UniProt P23470); test: Inhibition of PTPgamma (unknown origin)
# [14] = target: Receptor-type tyrosine-protein phosphatase epsilon (Homo sapiens, UniProt P23469); test: Inhibition of PTPepsilon (unknown origin)
# [15] = target: Dual specificity protein phosphatase 6 (Homo sapiens, UniProt Q16828); test: Inhibition of MKP3 (unknown origin)
# [16] = target: Dual specificity protein phosphatase 3 (Homo sapiens, UniProt P51452); test: Inhibition of VHR (unknown origin)
# [17] = target: Dual specificity protein phosphatase 23 (Homo sapiens, UniProt Q9BVJ7); test: Inhibition of VHZ (unknown origin)
# [18] = target: RNA polymerase II subunit A C-terminal domain phosphatase SSU72 (Homo sapiens, UniProt Q9NP77); test: Inhibition of SSU72 (unknown origin)
# [19] = target: Serine/threonine-protein phosphatase 5 (Homo sapiens, UniProt P53041); test: Inhibition of PP5 (unknown origin)
# [20] = Aqueous solubility of compound at pH 6 by HPLC analysis; type: physicochemical; details: buffer
# CYP2D6 = CYP2D6 (Homo sapiens, UniProt P10635); test: Inhibition of human hepatic CYP2D6 using bufuralol HCL as substrate measured after 3 mins by LC-MS analysis relative to control; type: ADME, tissue-based; design: concentration or dose not given beside the values; details: human hepatic CYP2D6 (liver), probe bufuralol HCl
# CYP2C9 = CYP2C9 (Homo sapiens, UniProt P11712); test: Inhibition of human hepatic CYP2C9 using diclofenac as substrate measured after 10 mins by LC-MS analysis relative to control; type: ADME, tissue-based; design: concentration or dose not given beside the values; details: human hepatic CYP2C9 (liver), probe diclofenac
# CYP3A4 = CYP3A4 (Homo sapiens, UniProt P08684); test: Inhibition of human hepatic CYP3A4 using midazolam as substrate measured after 3 mins by LC-MS analysis relative to control; type: ADME, tissue-based; design: concentration or dose not given beside the values; details: human hepatic CYP3A4 (liver), probe midazolam
# [21] = Metabolic stability in human hepatic microsome at 4 uM measured after 30 mins by LC-MS analysis; type: ADME; details: liver microsomes, read-out: Stability
# [22] = Metabolic stability in dog hepatic microsome at 4 uM measured after 30 mins by LC-MS analysis; type: ADME, Canis lupus familiaris; details: liver microsomes, read-out: Stability
# [23] = Plasma protein binding in mouse assessed as unbound fraction measured after 4.5 hrs by LC-MS/MS analysis; type: ADME, cell-free
# [24] = AUC(0 to 8 hrs) in CD-1 mouse plasma at 10 mg/kg, po measured after 8 hrs by LC-MS/MS analysis; type: ADME, organism-based; design: dose 10 mg/kg, time 8 hrs, route po; details: in vivo
# [25] = AUC(0 to 8 hrs) in CD-1 mouse plasma at 2 mg/kg, iv measured after 8 hrs by LC-MS/MS analysis; type: ADME, organism-based; design: dose 2 mg/kg, time 8 hrs, route iv; details: in vivo
# [26] = Unbound Cmax in plasma of CD-1 mouse at 10 mg/kg, po measured after 8 hrs by LC-MS/MS analysis; type: ADME, organism-based; details: in vivo
# [27] = Unbound Cmax in plasma of CD-1 mouse at 2 mg/kg, iv measured after 8 hrs by LC-MS/MS analysis; type: ADME, organism-based; details: in vivo
# [28] = Volume of distribution at steady state in CD-1 mouse plasma at 2 mg/kg, iv measured after 8 hrs by LC-MS/MS analysis; type: ADME, organism-based; details: in vivo
# [29] = Oral bioavailability in CD-1 mouse plasma at 10 mg/kg measured after 8 hrs by LC-MS/MS analysis; type: ADME, organism-based; details: mouse, in vivo, po, 10 mg/kg, 8 h
# [30] = AUC(0 to 12 hrs) in Sprague-Dawley rat plasma at 30 mg/kg, po measured after 24 hrs by LC-MS/MS analysis; type: ADME, organism-based; design: time 24 hrs, dose 30 mg/kg, route po; details: in vivo
# [31] = AUC(0 to 12 hrs) in Sprague-Dawley rat plasma at 3 mg/kg, po measured after 24 hrs by LC-MS/MS analysis; type: ADME, organism-based; design: time 24 hrs, dose 3 mg/kg, route po; details: in vivo
# [32] = Cmax in Sprague-Dawley rat plasma at 30 mg/kg, po measured after 24 hrs by LC-MS/MS analysis; type: ADME, organism-based; design: time 24 hrs, dose 30 mg/kg, route po; details: in vivo
# [33] = Half life in Sprague-Dawley rat plasma at 30 mg/kg, po measured after 24 hrs by LC-MS/MS analysis; type: ADME, organism-based; details: in vivo
# [34] = target: T2, Low molecular weight phosphotyrosine protein phosphatase (Rattus norvegicus, UniProt P41498); test: Inhibition of N-terminal His-tagged full length rat LMW-PTP expressed in Escherichia coli BL21(DE3)
# T2 sequence (P41498 whole entry): T1 sequence (Q9D358 whole entry) with K35N, R65K, K80R, Y158H
# [35] = target: T3, Low molecular weight phosphotyrosine protein phosphatase (Homo sapiens, UniProt P24666); test: Competitive inhibition of LMW-PTP (unknown origin) assessed as inhibition constant by Lineweaver-Burk plot analysis
# T3 sequence (P24666 whole entry): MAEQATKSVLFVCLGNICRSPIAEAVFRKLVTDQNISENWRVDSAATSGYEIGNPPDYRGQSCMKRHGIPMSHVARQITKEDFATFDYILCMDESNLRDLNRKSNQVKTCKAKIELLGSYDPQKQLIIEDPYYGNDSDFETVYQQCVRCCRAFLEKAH
# Sequence of Tyrosine-protein phosphatase non-receptor type 6 (P29350 whole entry): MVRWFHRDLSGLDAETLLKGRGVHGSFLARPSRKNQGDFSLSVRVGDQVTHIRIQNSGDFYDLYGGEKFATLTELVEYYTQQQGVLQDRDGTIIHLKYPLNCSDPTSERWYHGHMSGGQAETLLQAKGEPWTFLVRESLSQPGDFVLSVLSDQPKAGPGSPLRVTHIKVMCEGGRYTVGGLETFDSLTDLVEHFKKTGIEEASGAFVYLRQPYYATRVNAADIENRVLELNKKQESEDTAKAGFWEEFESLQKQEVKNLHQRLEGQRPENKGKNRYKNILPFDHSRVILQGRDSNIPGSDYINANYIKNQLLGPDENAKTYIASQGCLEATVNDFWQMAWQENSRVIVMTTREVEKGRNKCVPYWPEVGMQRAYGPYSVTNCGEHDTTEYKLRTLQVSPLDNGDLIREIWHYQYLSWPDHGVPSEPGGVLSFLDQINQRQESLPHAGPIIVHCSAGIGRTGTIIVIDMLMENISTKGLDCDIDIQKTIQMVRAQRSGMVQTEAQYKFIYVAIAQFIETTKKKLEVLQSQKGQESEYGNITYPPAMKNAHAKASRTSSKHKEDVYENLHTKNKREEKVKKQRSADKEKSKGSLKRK
# Sequence of CYP2C9 (P11712 whole entry): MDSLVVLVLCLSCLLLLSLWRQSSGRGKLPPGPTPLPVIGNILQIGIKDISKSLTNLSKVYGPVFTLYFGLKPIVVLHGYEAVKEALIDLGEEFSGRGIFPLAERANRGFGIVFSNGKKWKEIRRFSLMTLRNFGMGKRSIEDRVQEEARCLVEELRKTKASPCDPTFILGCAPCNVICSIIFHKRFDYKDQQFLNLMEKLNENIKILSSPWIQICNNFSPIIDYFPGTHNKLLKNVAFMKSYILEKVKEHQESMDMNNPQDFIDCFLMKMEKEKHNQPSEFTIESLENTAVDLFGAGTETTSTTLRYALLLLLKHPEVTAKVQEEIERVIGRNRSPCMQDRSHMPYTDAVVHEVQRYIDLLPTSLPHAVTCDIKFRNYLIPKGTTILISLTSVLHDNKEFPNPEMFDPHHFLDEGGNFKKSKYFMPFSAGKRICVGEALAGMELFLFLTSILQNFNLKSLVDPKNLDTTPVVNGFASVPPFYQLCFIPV
# Sequence of Tyrosine-protein phosphatase non-receptor type 7 (P35236 whole entry): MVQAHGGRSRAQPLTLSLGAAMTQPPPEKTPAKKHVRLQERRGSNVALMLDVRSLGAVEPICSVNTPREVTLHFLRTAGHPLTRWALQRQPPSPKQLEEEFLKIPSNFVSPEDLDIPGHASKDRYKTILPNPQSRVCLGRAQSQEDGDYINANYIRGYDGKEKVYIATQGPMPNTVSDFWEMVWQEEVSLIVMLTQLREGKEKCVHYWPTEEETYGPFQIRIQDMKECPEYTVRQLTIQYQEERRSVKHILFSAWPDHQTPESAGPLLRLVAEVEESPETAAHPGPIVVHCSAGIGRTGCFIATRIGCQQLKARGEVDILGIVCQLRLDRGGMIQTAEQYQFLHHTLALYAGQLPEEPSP
# Sequence of CYP3A4 (P08684 whole entry): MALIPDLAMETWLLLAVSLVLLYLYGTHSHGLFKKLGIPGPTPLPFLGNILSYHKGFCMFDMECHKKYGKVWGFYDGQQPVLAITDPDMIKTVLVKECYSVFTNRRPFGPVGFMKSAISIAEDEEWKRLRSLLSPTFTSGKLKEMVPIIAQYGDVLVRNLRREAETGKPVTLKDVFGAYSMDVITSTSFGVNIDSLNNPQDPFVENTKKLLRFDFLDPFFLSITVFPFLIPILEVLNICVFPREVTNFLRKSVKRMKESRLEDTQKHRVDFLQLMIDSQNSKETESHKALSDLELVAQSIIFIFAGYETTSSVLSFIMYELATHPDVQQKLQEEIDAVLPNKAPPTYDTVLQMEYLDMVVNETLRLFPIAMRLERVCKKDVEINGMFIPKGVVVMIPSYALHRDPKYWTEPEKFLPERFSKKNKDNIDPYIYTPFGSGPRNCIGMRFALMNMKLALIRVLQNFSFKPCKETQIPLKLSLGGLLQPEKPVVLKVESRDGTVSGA
# Sequence of Dual specificity protein phosphatase 6 (Q16828 whole entry): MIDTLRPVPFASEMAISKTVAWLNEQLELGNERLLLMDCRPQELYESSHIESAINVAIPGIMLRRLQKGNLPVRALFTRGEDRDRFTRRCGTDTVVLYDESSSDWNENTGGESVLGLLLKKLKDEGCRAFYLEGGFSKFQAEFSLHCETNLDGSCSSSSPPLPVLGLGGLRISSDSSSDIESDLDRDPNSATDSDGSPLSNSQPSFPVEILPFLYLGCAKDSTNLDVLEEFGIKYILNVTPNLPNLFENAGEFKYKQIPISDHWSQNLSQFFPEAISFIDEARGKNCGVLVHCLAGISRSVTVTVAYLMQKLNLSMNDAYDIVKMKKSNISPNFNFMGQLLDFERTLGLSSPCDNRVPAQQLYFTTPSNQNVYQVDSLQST
# Sequence of Tyrosine-protein phosphatase non-receptor type 13 (Q12923 whole entry): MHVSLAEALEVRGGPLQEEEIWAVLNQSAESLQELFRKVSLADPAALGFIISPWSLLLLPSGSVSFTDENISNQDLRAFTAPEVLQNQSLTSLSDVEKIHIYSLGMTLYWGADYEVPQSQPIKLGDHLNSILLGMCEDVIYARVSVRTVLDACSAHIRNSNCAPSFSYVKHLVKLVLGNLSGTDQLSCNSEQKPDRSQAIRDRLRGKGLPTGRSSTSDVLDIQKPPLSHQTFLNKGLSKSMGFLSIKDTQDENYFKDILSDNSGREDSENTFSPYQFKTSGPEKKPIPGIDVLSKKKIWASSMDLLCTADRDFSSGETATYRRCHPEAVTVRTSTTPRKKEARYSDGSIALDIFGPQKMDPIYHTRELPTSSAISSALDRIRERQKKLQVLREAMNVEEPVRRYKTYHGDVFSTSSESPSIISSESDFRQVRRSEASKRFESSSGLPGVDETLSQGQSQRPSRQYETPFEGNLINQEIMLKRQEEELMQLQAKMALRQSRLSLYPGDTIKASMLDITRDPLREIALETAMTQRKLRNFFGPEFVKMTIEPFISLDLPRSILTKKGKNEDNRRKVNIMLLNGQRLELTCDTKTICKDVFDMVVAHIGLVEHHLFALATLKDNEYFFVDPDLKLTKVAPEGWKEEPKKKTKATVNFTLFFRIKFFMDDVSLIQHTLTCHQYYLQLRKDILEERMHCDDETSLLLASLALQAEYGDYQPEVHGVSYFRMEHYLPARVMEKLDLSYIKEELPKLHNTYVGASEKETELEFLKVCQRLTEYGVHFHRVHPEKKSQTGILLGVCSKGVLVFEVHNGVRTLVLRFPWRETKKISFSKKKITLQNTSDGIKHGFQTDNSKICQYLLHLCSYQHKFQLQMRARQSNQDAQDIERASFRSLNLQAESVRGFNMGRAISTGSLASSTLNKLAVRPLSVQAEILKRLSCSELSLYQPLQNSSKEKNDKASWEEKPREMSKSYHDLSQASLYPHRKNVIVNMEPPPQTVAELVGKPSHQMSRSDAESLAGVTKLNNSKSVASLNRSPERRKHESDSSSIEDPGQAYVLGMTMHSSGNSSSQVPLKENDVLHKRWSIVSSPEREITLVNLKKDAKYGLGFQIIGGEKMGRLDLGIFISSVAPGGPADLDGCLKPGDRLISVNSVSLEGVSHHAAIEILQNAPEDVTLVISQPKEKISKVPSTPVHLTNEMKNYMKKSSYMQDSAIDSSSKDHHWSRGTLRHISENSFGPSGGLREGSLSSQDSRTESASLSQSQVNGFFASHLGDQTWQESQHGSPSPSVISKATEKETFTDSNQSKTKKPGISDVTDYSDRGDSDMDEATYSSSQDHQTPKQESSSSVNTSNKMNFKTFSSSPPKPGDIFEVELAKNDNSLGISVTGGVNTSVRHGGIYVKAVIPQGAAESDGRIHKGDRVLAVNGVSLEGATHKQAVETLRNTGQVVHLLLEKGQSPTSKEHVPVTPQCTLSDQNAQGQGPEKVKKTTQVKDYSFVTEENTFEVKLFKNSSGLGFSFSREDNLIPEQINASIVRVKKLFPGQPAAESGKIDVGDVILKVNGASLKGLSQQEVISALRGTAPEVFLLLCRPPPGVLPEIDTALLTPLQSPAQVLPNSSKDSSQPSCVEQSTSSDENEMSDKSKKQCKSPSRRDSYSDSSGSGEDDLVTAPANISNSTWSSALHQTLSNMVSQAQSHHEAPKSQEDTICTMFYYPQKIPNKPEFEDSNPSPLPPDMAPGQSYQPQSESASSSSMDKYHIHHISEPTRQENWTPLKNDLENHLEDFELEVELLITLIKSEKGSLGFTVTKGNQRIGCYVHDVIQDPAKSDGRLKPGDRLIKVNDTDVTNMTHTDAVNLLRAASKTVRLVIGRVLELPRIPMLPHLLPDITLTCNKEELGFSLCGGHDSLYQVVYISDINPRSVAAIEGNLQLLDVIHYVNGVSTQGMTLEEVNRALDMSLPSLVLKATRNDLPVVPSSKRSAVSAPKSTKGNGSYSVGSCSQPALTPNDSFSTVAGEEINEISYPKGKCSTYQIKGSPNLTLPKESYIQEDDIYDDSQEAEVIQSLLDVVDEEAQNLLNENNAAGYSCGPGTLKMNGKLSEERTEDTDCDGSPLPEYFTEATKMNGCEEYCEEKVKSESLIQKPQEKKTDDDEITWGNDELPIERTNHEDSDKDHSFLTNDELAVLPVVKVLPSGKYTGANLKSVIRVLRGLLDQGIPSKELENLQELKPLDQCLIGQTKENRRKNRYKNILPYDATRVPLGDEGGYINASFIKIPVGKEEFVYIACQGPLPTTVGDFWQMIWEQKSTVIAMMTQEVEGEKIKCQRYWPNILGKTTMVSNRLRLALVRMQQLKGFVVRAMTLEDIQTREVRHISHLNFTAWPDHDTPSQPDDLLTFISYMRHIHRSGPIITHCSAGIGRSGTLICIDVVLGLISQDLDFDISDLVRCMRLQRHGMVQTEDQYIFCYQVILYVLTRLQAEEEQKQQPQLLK
# Sequence of Dual specificity protein phosphatase 3 (P51452 whole entry): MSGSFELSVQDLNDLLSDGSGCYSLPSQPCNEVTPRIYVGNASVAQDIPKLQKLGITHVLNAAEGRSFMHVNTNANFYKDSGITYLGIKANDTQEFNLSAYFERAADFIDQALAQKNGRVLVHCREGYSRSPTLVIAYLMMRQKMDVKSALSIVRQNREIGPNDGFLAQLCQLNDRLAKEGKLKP
smiles,measurement,setting,value
Cc1c(Br)cc(NC(=O)NS(=O)(=O)O)cc1Br,IC50,[1],> 10 µM
same,IC50,[2],> 10 µM
same,IC50,[3],> 10 µM
same,IC50,[4],> 10 µM
same,IC50,[5],> 10 µM
same,IC50,[6],> 10 µM
same,IC50,[7],> 10 µM
same,IC50,[8],> 10 µM
same,IC50,[9],0.003 µM
same,IC50,[10],> 10 µM
same,IC50,[11],> 10 µM
same,IC50,[12],> 10 µM
same,IC50,[13],> 10 µM
same,IC50,[14],> 10 µM
same,IC50,[15],> 10 µM
same,IC50,[16],> 10 µM
same,IC50,[17],> 10 µM
same,IC50,[18],> 10 µM
same,IC50,[19],> 10 µM
same,solubility,[20],9.5 µg/mL
same,inhibition at 0.05 h,CYP2D6,2%
same,inhibition at 10 min,CYP2C9,0%
same,inhibition at 0.05 h,CYP3A4,0%
same,"remaining at 0.5 h, 4 µM",[21],21%
same,"remaining at 0.5 h, 4 µM",[22],38%
same,Fu,[23],0.024
same,AUC,[24],37.3 µM·h
same,AUC,[25],15.1 µM·h
same,fCmax,[26],233 nM
same,fCmax,[27],322 nM
same,Vdss,[28],0.42 L/kg
same,F,[29],34%
same,AUC,[30],42.8 µM·h
same,AUC,[31],4.66 µM·h
same,Cmax,[32],6.59 µM
same,t1/2,[33],2.8 h
same,IC50,[34],0.003 µM
same,Ki,[35],0.0012 µM
